The values below come from patent US20140162980A1, “NOVEL MICROBIOCIDAL DIOXIME ETHER DERIVATIVES” (SYNGENTA CROP PROTECTION LLC, priority 2010, published 2014).

The test system of one assay is Blumeria graminis f. sp. tritici (Erysiphe graminis f. sp. tritici). As to the kind of experiment: Blumeria graminis f. sp. tritici / wheat / leaf disc preventative (powdery mildew on wheat). The assay is classed as in vivo. The conditions noted are these: foliar, wheat leaf segments cv. Kanzler, inoculated 1 day after application, assessed 6-8 days after application, read-out: control of Blumeria graminis (percent disease control compared to untreated). On the procedure: Blumeria Graminis f. Sp. Tritici (Erysiphe Graminis f. Sp. Tritici)/Wheat/Leaf Disc Preventative (Powdery Mildew on Wheat):
Wheat leaf segments cv. Kanzler were placed on agar in a 24-well plate and sprayed with the formulated test compound diluted in water at an application rate of 200 ppm. The leaf disks were inoculated by shaking powdery mildew infected plants above the test plates 1 day after application. The inoculated leaf disks were incubated at 20° C. and 60% relative humidity under a light regime of 24 h darkness followed by 12 h/12 h (dark/light) in a climate chamber and the activity of a compound was assessed as percent disease control compared to untreated when an appropriate level of disease damage appears on untreated check leaf segments (6-8 days after application). The following compounds gave at least 80% control of Blumeria graminis: […]
Regarding `Cc1c2c(nc3ccccc13)/C(=N/OCC1(CO/N=C3\CCCc4c3nc3ccccc3c4C)CC1)CCC2` [P.27], the pest or weed control at 200 ppm is at least 80%.

For `Cc1ccc2c(n1)/C(=N/OCC(Cl)CO/N=C1\CCCc3ccc(C)nc31)CCC2` (centres unmarked) [P.24], the pest or weed control at 200 ppm is at least 80%.

For the compound `Cc1c2c(nc3ccccc13)/C(=N/OCCCO/N=C1\CCCc3c1nc1ccccc1c3C)CCC2` [P.25], the pest or weed control at 200 ppm is at least 80%.

In a further assay the test system is Puccinia recondita f. sp. tritici. As to the kind of experiment: Puccinia recondita f. sp. tritici / wheat / leaf disc preventative (brown rust). The assay is classed as in vivo. The conditions noted are these: foliar, wheat leaf segments cv Kanzler, inoculated 1 day after application, assessed 7-9 days after application, read-out: control of Puccinia recondita f. sp. tritici, preventative (percent disease control compared to untreated). On the procedure:
Puccinia Recondita f. Sp. Tritici/Wheat/Leaf Disc Preventative (Brown Rust): Wheat leaf segments cultivated variety (cv) Kanzler were placed on agar in 24-well plates and sprayed with formulated test compound diluted in water at an application rate of 200 ppm. The leaf disks were inoculated with a spore suspension of the fungus 1 day after application. The inoculated leaf segments were incubated at 19° C. and 75% relative humidity under a light regime of 12/12 h (light/dark) in a climate cabinet and the activity of a compound was assessed as percent disease control compared to untreated when an appropriate level of disease damage appears in untreated check leaf segments (7-9 days after application).
For the compound `Cc1ccc2c(n1)/C(=N/OCC(O)CO/N=C1\CCCc3ccc(C)nc31)CCC2` (centres unmarked) [P.11], the pest or weed control at 200 ppm is at least 80%.

In the case of `Cc1ccc2c(n1)/C(=N/OCC(Cl)CO/N=C1\CCCc3ccc(C)nc31)CCC2` (centres unmarked) [P.24], the pest or weed control at 200 ppm is at least 80%.

Regarding `Cc1c2c(nc3ccccc13)/C(=N/OCCCO/N=C1\CCCc3c1nc1ccccc1c3C)CCC2` [P.25], the pest or weed control at 200 ppm is at least 80%.

The next assay has the same test system. The assay can be described thus: Puccinia recondita f. sp. tritici / wheat / leaf disc curative (brown rust). The following applies: foliar, 200 ppm applied 1 day after inoculation, wheat leaf segments cv Kanzler, assessed 6-8 days after application, read-out: control of Puccinia recondita f. sp. tritici, curative (percent disease control compared to untreated). The assay is classed as in vivo. On the procedure:
Puccinia Recondita f. Sp. Tritici/Wheat/Leaf Disc Curative (Brown Rust): Wheat leaf segments cv Kanzler were placed on agar in 24-well plates. The leaf segments were inoculated with a spore suspension of the fungus. The plates were stored in darkness at 19° C. and 75% relative humidity. The formulated test compound diluted in water was applied at an application rate of 200 ppm 1 day after inoculation.
For `Cc1cc(CF)nc2c1CCC/C2=N\OCC(C)(C)CO/N=C1\CCCc2c(C)cc(CF)nc21` [P.34], the pest or weed control at 200 ppm is at least 80%.

Take `Cc1ccc2c(n1)/C(=N/OCC(O)CO/N=C1\CCCc3ccc(C)nc31)CCC2` (centres unmarked) [P.11]: the pest or weed control at 200 ppm is at least 80%.

For the compound `Cc1ccc2c(n1)/C(=N/OCC(Cl)CO/N=C1\CCCc3ccc(C)nc31)CCC2` (centres unmarked) [P.24], the pest or weed control at 200 ppm was at least 80%.

A further assay relates to Magnaporthe grisea (Pyricularia oryzae). As to the kind of experiment: whole plant or invertebrate. Type of assay: in vivo. The following applies: foliar, read-out: control of Magnaporthe grisea (percent disease control compared to untreated).
Regarding `Cc1cc(CF)nc2c1CCC/C2=N\OCC(C)(C)CO/N=C1\CCCc2c(C)cc(CF)nc21` [P.34], the pest or weed control at 200 ppm was at least 80%.

The next assay deals with Phaeosphaeria nodorum (Septoria nodorum). The assay can be described thus: Phaeosphaeria nodorum (Septoria nodorum) / wheat / leaf disc preventative (glume blotch). The assay is classed as in vivo. The following applies: Parastagonospora nodorum, foliar, wheat leaf segments cv Kanzler, inoculated 2 days after application, assessed 5-7 days after application, read-out: control of Phaeosphaeria nodorum (percent disease control compared to untreated). On the procedure:
Phaeosphaeria Nodorum (Septoria nodorum)/Wheat/Leaf Disc Preventative (Glume Blotch): Wheat leaf segments cv Kanzler were placed on agar in a 24-well plate and sprayed with formulated test compound diluted in water at an application rate of 200 ppm. The leaf disks are inoculated with a spore suspension of the fungus 2 days after application. The inoculated test leaf disks are incubated at 20° C. and 75% relative humidity under a light regime of 12/12 h (light/dark) in a climate cabinet and the activity of a compound is assessed as percent disease control compared to untreated when an appropriate level of disease damage appears in untreated check leaf disks (5-7 days after application).
For the compound `Cc1cc(CF)nc2c1CCC/C2=N\OCC(C)(C)CO/N=C1\CCCc2c(C)cc(CF)nc21` [P.34], the pest or weed control at 200 ppm was at least 80%.

In the case of `Cc1ccc2c(n1)/C(=N/OCC(C)(C)CO/N=C1\CC(C)Cc3ccc(-c4ccc(Cl)cc4)nc31)CCC2` (centres unmarked) [P.22], the pest or weed control at 200 ppm was at least 80%.

Regarding `Cc1ccc2c(n1)/C(=N/OCC(O)CO/N=C1\CCCc3ccc(C)nc31)CCC2` (centres unmarked) [P.11], the pest or weed control at 200 ppm is at least 80%.

As to `Cc1c2c(nc3ccccc13)/C(=N/OCC1(CO/N=C3\CCCc4c3nc3ccccc3c4C)CC1)CCC2` [P.27], the pest or weed control at 200 ppm is at least 80%.

Consider `Cc1ccc2c(n1)/C(=N/OCC(Cl)CO/N=C1\CCCc3ccc(C)nc31)CCC2` (centres unmarked) [P.24], for which the pest or weed control at 200 ppm was at least 80%.

Consider `Cc1c2c(nc3ccccc13)/C(=N/OCCCO/N=C1\CCCc3c1nc1ccccc1c3C)CCC2` [P.25], for which the pest or weed control at 200 ppm was at least 80%.

The subject of a further assay is Pyrenophora teres. The assay can be described thus: Pyrenophora teres / barley / leaf disc preventative (net blotch). Type of assay: in vivo. The following applies: foliar, barley leaf segments cv Hasso, inoculated two days after application, assessed 5-7 days after application, read-out: control of Pyrenophora teres (disease control compared to untreated). Here is the method: Pyrenophora Teres/Barley/Leaf Disc Preventative (Net Blotch): Barley leaf segments cv Hasso are placed on agar in a 24-well plate and sprayed with formulated test compound diluted in water at an application rate of 200 ppm. The leaf segments are inoculated with a spore suspension of the fungus two days after application of the test solution. The inoculated leaf segments are incubated at 20° C. and 65% relative humidity under a light regime of 12/12 h (light/dark) in a climate cabinet and the activity of a compound is assessed as disease control compared to untreated when an appropriate level of disease damage appears in untreated check leaf segments (5-7 days after application).
Regarding `Cc1cc(CF)nc2c1CCC/C2=N\OCC(C)(C)CO/N=C1\CCCc2c(C)cc(CF)nc21` [P.34], the pest or weed control at 200 ppm is at least 80%.

On to `Cc1ccc2c(n1)/C(=N/OCC(O)CO/N=C1\CCCc3ccc(C)nc31)CCC2` (centres unmarked) [P.11], for which the pest or weed control at 200 ppm was at least 80%.

On to `Cc1c2c(nc3ccccc13)/C(=N/OCC1(CO/N=C3\CCCc4c3nc3ccccc3c4C)CC1)CCC2` [P.27], for which the pest or weed control at 200 ppm is at least 80%.

As to `Cc1ccc2c(n1)/C(=N/OCC(Cl)CO/N=C1\CCCc3ccc(C)nc31)CCC2` (centres unmarked) [P.24], the pest or weed control at 200 ppm is at least 80%.

As for `Cc1c2c(nc3ccccc13)/C(=N/OCCCO/N=C1\CCCc3c1nc1ccccc1c3C)CCC2` [P.25], the pest or weed control at 200 ppm is at least 80%.

The next assay has as its system Pythium ultimum. The assay can be described thus: Pythium ultimum / liquid culture (seedling damping off). Type of assay: cell-based. The conditions noted are these: Globisporangium ultimum, PDB potato dextrose broth, 24° C., 2-3 days after application, read-out: control of Pythium ultimum (inhibition of growth, photometrically). On the procedure:
Pythium Ultimum/Liquid Culture (Seedling Damping Off): Mycelia fragments and oospores of a newly grown liquid culture of the fungus were directly mixed into nutrient broth (PDB potato dextrose broth). After placing a DMSO solution of test compound into a 96 well microtiter plate at an application rate 200 ppm, the nutrient broth containing the fungal mycelia/spore mixture was added. The test plates were incubated at 24° C. and the inhibition of growth was determined photometrically 2-3 days after application.
For the compound `Cc1ccc2c(n1)/C(=N/OCC(Cl)CO/N=C1\CCCc3ccc(C)nc31)CCC2` (centres unmarked) [P.24], the inhibition at 200 ppm is at least 80%.

A further assay has as its system Botryotinia fuckeliana (Botrytis cinerea). As to the kind of experiment: Botryotinia fuckeliana (Botrytis cinerea) / liquid culture (gray mould). Type of assay: cell-based. The following applies: Vogels broth, 24° C., 3-4 days after application, read-out: control of Botryotinia fuckeliana (inhibition of growth, photometrically). On the procedure: Botryotinia Fuckeliana (Botrytis cinerea)/Liquid Culture (Gray Mould): Conidia of the fungus from cryogenic storage were directly mixed into nutrient broth (Vogels broth). After placing a DMSO solution of test compound into a 96-well microtiter plate at an application rate 200 ppm, the nutrient broth containing the fungal spores was added. The test plates were incubated at 24° C. and the inhibition of growth was determined photometrically 3-4 days after application.
For the compound `Cc1cc(CF)nc2c1CCC/C2=N\OCC(C)(C)CO/N=C1\CCCc2c(C)cc(CF)nc21` [P.34], the inhibition at 200 ppm is at least 80%.

On to `Cc1ccc2c(n1)/C(=N/OCC(C)(C)CO/N=C1\CCc3ccc(Cl)nc31)CCC2` [P.01], for which the inhibition at 200 ppm is at least 80%.

In the case of `Cc1ccc2c(n1)/C(=N/OCC(C)(C)CO/N=C1\CC(C)Cc3ccc(-c4ccc(Cl)cc4)nc31)CCC2` (centres unmarked) [P.22], the inhibition at 200 ppm was at least 80%.

For `FCc1ccnc2c1CCC/C2=N\OCCCO/N=C1\CCCc2c(CF)ccnc21` [P.36], the inhibition at 200 ppm is at least 80%.

As for `CSc1cc(C)nc2c1CCC/C2=N\OCCCO/N=C1\CCCc2c(SC)cc(C)nc21` [P.43], the inhibition at 200 ppm was at least 80%.

As for `Cc1c2c(nc3ccccc13)/C(=N/OCC1(CO/N=C3\CCCc4c3nc3ccccc3c4C)CC1)CCC2` [P.27], the inhibition at 200 ppm was at least 80%.

For the compound `Cc1ccc2c(n1)/C(=N/OCC(Cl)CO/N=C1\CCCc3ccc(C)nc31)CCC2` (centres unmarked) [P.24], the inhibition at 200 ppm was at least 80%.

Turning to `Cc1cc(Cl)c2c(n1)/C(=N/OCC1(CO/N=C3\CCCc4c(Cl)cc(C)nc43)CC1)CCC2` [P.12], the inhibition at 200 ppm is at least 80%.

Consider `Cc1c2c(nc3ccccc13)/C(=N/OCCCO/N=C1\CCCc3c1nc1ccccc1c3C)CCC2` [P.25], for which the inhibition at 200 ppm is at least 80%.

Another assay deals with Thanatephorus cucumeris (Rhizoctonia solani). As to the kind of experiment: Thanatephorus cucumeris (Rhizoctonia solani) / liquid culture (foot rot, damping-off). The assay is classed as cell-based. The following applies: PDB potato dextrose broth, 24° C., 3-4 days after application, read-out: control of Thanatephorus cucumeris (inhibition of growth, photometrically). On the procedure:
Thanatephorus Cucumeris (Rhizoctonia solani)/Liquid Culture (Foot Rot, Damping-Off): Mycelia fragments of a newly grown liquid culture of the fungus are directly mixed into nutrient broth (PDB potato dextrose broth). After placing a DMSO solution of the test compounds into a 96-well microtiter plate at an application rate 200 ppm, the nutrient broth containing the fungal material was added. The test plates were incubated at 24° C. and the inhibition of growth was determined photometrically 3-4 days after application.
Turning to `Cc1cc(Cl)c2c(n1)/C(=N/OCC1(CO/N=C3\CCCc4c(Cl)cc(C)nc43)CC1)CCC2` [P.12], the inhibition at 200 ppm was at least 80%.

The inhibition is the change of the read-out against control, counted positive when it falls.
